From patent US20250332178A1, “METHODS OF TREATING MYCOBACTERIAL INFECTIONS USING TETRACYCLINE COMPOUNDS” (priority 2018, published 2025)
≈ marks a conversion by molar mass, not a printed value. Where two headings read alike, the source gives them in different places.

How the values were obtained:
M. abscessus complex = assay: MIC (CLSI broth dilution), RGM isolates; assay type: cell-based; conditions: Mycobacteroides abscessus, initial reading, generally 3-4 days, read-out: MIC, CLA Initial
M. chelonae = assay: MIC (CLSI broth dilution), RGM isolates; assay type: cell-based; conditions: Mycobacteroides chelonae
[1] = system: rapid-growing mycobacteria (RGM) isolates; assay: MIC (CLSI broth dilution), all RGM isolates; assay type: cell-based, nontuberculous mycobacteria
M. fortuitum group = assay: MIC (CLSI broth dilution), RGM isolates; assay type: cell-based; conditions: Mycolicibacterium fortuitum

For `CC[C@H]1OC(=O)[C@H](C)[C@@H](O[C@H]2C[C@@](C)(OC)[C@@H](O)[C@H](C)O2)[C@H](C)[C@@H](O[C@@H]2O[C@H](C)C[C@H](N(C)C)[C@H]2O)[C@](C)(OC)C[C@@H](C)C(=O)[C@H](C)[C@@H](O)[C@]1(C)O` [clarithromycin], the MIC (M. abscessus complex; isolate 5, massiliense/subsp. abs hybrid) was ≤ 0.06 µg/mL, the MIC (M. abscessus complex; isolate 6, Type 1 abscessus) was 0.25 µg/mL (≈ 0.334 µM) and the MIC (M. abscessus complex; isolate 7, Type 1 abscessus) was 0.12 µg/mL (≈ 0.16 µM). It also gave an MIC (M. abscessus complex; isolate 8, Type 1 abscessus) of 0.12 µg/mL (≈ 0.16 µM), an MIC (M. abscessus complex; isolate 9, Type 1 abscessus) of 2 µg/mL (≈ 2.67 µM) and an MIC (M. abscessus complex; isolate 10, Type 1 abscessus) of 0.25 µg/mL (≈ 0.334 µM). The MIC (M. abscessus complex; isolate 11, Type 6 abscessus) was 0.12 µg/mL (≈ 0.16 µM), the MIC (M. abscessus complex; isolate 12, Type 6 abscessus) was 0.25 µg/mL (≈ 0.334 µM) and the MIC (M. abscessus complex; isolate 13, Type 6 abscessus) was 0.25 µg/mL (≈ 0.334 µM). For the same compound, the MIC (M. abscessus complex; isolate 14, Type 6 abscessus) was ≤ 0.06 µg/mL, the MIC (M. abscessus complex; isolate 15, Type 7 abscessus) was 0.5 µg/mL (≈ 0.668 µM) and the MIC (M. abscessus complex; isolate 16, Type 7 abscessus) was ≤ 0.06 µg/mL. For the same compound, the MIC (M. abscessus complex; isolate 17, Type 8 abscessus) was 0.25 µg/mL (≈ 0.334 µM), the MIC (M. chelonae; 336 h, isolate 18, M. chelonae, extended reading, up to/including 14 days, read-out: MIC, CLA Extended) was 2 µg/mL (≈ 2.67 µM) and the MIC (M. chelonae; 336 h, isolate 19, M. chelonae, extended reading, up to/including 14 days, read-out: MIC, CLA Extended) was 0.5 µg/mL (≈ 0.668 µM). The MIC (M. chelonae; 336 h, isolate 20, M. chelonae, extended reading, up to/including 14 days, read-out: MIC, CLA Extended) was 0.5 µg/mL (≈ 0.668 µM), the MIC (M. chelonae; 336 h, isolate 21, M. chelonae, extended reading, up to/including 14 days, read-out: MIC, CLA Extended) was 2 µg/mL (≈ 2.67 µM) and the MIC (M. chelonae; 336 h, isolate 22, M. chelonae, extended reading, up to/including 14 days, read-out: MIC, CLA Extended) was 2 µg/mL (≈ 2.67 µM). It also gave an MIC (M. chelonae; isolate 18, M. chelonae, initial reading, generally 3-4 days, read-out: MIC, CLA Initial) of 0.25 µg/mL (≈ 0.334 µM), an MIC (M. chelonae; isolate 19, M. chelonae, initial reading, generally 3-4 days, read-out: MIC, CLA Initial) of 0.25 µg/mL (≈ 0.334 µM) and an MIC (M. chelonae; isolate 20, M. chelonae, initial reading, generally 3-4 days, read-out: MIC, CLA Initial) of 0.5 µg/mL (≈ 0.668 µM). The MIC (M. chelonae; isolate 21, M. chelonae, initial reading, generally 3-4 days, read-out: MIC, CLA Initial) was 0.5 µg/mL (≈ 0.668 µM), the MIC (M. chelonae; isolate 22, M. chelonae, initial reading, generally 3-4 days, read-out: MIC, CLA Initial) was 1 µg/mL (≈ 1.34 µM) and the MIC50 ([1]; 336 h, all RGM isolates, extended reading, up to/including 14 days, read-out: MIC50, CLA Extended) was 2 µg/mL (≈ 2.67 µM). For the same compound, the MIC90 ([1]; 336 h, all RGM isolates, extended reading, up to/including 14 days, read-out: MIC90, CLA Extended) was > 32 µg/mL, the MIC50 ([1]; all 50 RGM isolates, initial reading, generally 3-4 days, read-out: MIC50, CLA Initial) was 0.25 µg/mL (≈ 0.334 µM) and the MIC90 ([1]; all 50 RGM isolates, initial reading, generally 3-4 days, read-out: MIC90, CLA Initial) was 2 µg/mL (≈ 2.67 µM). For the same compound, the MIC (M. fortuitum group; 168 h, isolate 23, M. fortuitum, extended reading (7 d), read-out: MIC, CLA Extended) was > 32 µg/mL, the MIC (M. fortuitum group; 168 h, isolate 25, M. fortuitum, extended reading (7 d), read-out: MIC, CLA Extended) was > 32 µg/mL and the MIC (M. fortuitum group; 168 h, isolate 29, M. porcinum/M. boenickei, extended reading (7 d), read-out: MIC, CLA Extended) was > 32 µg/mL. The MIC (M. fortuitum group; 240 h, isolate 24, M. fortuitum, extended reading (10 d), read-out: MIC, CLA Extended) was > 32 µg/mL, the MIC (M. fortuitum group; 240 h, isolate 27, M. porcinum, extended reading (10 d), read-out: MIC, CLA Extended) was > 32 µg/mL and the MIC (M. fortuitum group; 240 h, isolate 28, M. porcinum/M. boenickei, extended reading (10 d), read-out: MIC, CLA Extended) was > 32 µg/mL. The MIC (M. fortuitum group; 336 h, isolate 26, M. porcinum, extended reading, up to/including 14 days, read-out: MIC, CLA Extended) was > 32 µg/mL, the MIC (M. fortuitum group; 336 h, isolate 30, M. porcinum/M. boenickei, extended reading, up to/including 14 days, read-out: MIC, CLA Extended) was > 32 µg/mL and the MIC (M. fortuitum group; 336 h, isolate 31, M. senegalense, extended reading, up to/including 14 days, read-out: MIC, CLA Extended) was 0.5 µg/mL (≈ 0.668 µM). For the same compound, the MIC (M. fortuitum group; 336 h, isolate 32, M. senegalense, extended reading, up to/including 14 days, read-out: MIC, CLA Extended) was 0.5 µg/mL (≈ 0.668 µM), the MIC (M. fortuitum group; 336 h, isolate 33, M. senegalense, extended reading, up to/including 14 days, read-out: MIC, CLA Extended) was 1 µg/mL (≈ 1.34 µM) and the MIC (M. fortuitum group; 336 h, isolate 34, M. senegalense, extended reading, up to/including 14 days, read-out: MIC, CLA Extended) was 1 µg/mL (≈ 1.34 µM). It also gave an MIC (M. fortuitum group; isolate 23, M. fortuitum, initial reading, generally 3-4 days, read-out: MIC, CLA Initial) of 1 µg/mL (≈ 1.34 µM), an MIC (M. fortuitum group; isolate 24, M. fortuitum, initial reading, generally 3-4 days, read-out: MIC, CLA Initial) of 0.5 µg/mL (≈ 0.668 µM) and an MIC (M. fortuitum group; isolate 25, M. fortuitum, initial reading, generally 3-4 days, read-out: MIC, CLA Initial) of 2 µg/mL (≈ 2.67 µM). For the same compound, the MIC (M. fortuitum group; isolate 26, M. porcinum, initial reading, generally 3-4 days, read-out: MIC, CLA Initial) was 0.5 µg/mL (≈ 0.668 µM), the MIC (M. fortuitum group; isolate 27, M. porcinum, initial reading, generally 3-4 days, read-out: MIC, CLA Initial) was 2 µg/mL (≈ 2.67 µM) and the MIC (M. fortuitum group; isolate 28, M. porcinum/M. boenickei, initial reading, generally 3-4 days, read-out: MIC, CLA Initial) was 8 µg/mL (≈ 10.7 µM). For the same compound, the MIC (M. fortuitum group; isolate 29, M. porcinum/M. boenickei, initial reading, generally 3-4 days, read-out: MIC, CLA Initial) was 4 µg/mL (≈ 5.35 µM), the MIC (M. fortuitum group; isolate 30, M. porcinum/M. boenickei, initial reading, generally 3-4 days, read-out: MIC, CLA Initial) was 1 µg/mL (≈ 1.34 µM) and the MIC (M. fortuitum group; isolate 31, M. senegalense, initial reading, generally 3-4 days, read-out: MIC, CLA Initial) was 0.12 µg/mL (≈ 0.16 µM). For the same compound, the MIC (M. fortuitum group; isolate 32, M. senegalense, initial reading, generally 3-4 days, read-out: MIC, CLA Initial) was 0.12 µg/mL (≈ 0.16 µM), the MIC (M. fortuitum group; isolate 33, M. senegalense, initial reading, generally 3-4 days, read-out: MIC, CLA Initial) was 0.12 µg/mL (≈ 0.16 µM) and the MIC (M. fortuitum group; isolate 34, M. senegalense, initial reading, generally 3-4 days, read-out: MIC, CLA Initial) was ≤ 0.06 µg/mL.
